Tested on: fine lines, wrinkles in the outer canthus of the eyes (crow's feet area)
Experiment: Roughness reduction [SEr] via Visioscan, Example 1
Format: in vivo, human
Set-up: Roughness [SEr] via Visioscan / Roughness [SEr] via Visioscan, Mean: scale not given here
Protocol: Three groups of women were recruited to evaluate and compare the efficacy of three anti-aging test products (targeting the periorbital eye area) intended to reduce the appearance of fine lines, wrinkles in the outer canthus of the eyes (crow's feet area) over a 12 week period. Wrinkle assessment was conducted instrumentally using a Visioscan image analysis system. Effectiveness of the test product was evaluated using panelist self-assessment via questionnaire responses comprised of 3-4 questions (Q1, Q2, Q3 & Q4). Each stage in the progression of treatments was photographically documented using a High Resolution Scientifically Matched Photography technique. Image analysis was utilized to quantify changes in fine lines and crow's feet condition observed in the Scientifically Matched Photographs.
Subject Selection: • Number: Six subjects (two per group) to complete the study. • Sex: Females • Race: Caucasian/Asian/Hispanic • Age Range: 40 through 60 years old
Test samples: • Topical 0.15% of Compound #222 in Oil (a 50/50 mixture of • Propylene Glycol Dicaprylate/Dicaprate and Caprylic/Capric Triglyceride) (Cohort 1) • Topical 0.15% of Compound #222 in PEG400 (Cohort 2) • Topical 0.05% of Compound #222 in PEG400 (Cohort 3)
Prior to baseline measurements being taken, areas of involvement were marked on the facial surface using a standard template, to ensure that instruments were repositioned in the same location at each visit. The biophysical measurements (Surface Evaluation of Living Skin via Visioscan) were conducted by a trained technician. Pre-treatment High Resolution Scientifically Matched Photographs were taken.
[…] After acclimating to ambient conditions, High Resolution Scientifically Matched Photographs were be taken and biophysical measurements (Surface Evaluation of Living Skin via Visioscan) were repeated using the standard template to identify test sites on the face. In addition (during the acclimation period) all participants were be asked to fill out a self-assessment questionnaire.
Surface Evaluation of Living Skin Visioscan: The Visioscan (Courage and Khazaka) took a direct image of the living skin using a measuring head containing a CCD-camera and two metal halogen lamps positioned opposite each other in order to ensure even illumination of the measuring field on the skin (Skin Pharmacol Appl Skin Physiol (1999), 12(1-2), 1-11 and Cosmetic & Toiletries magazine (2009), 124(6), 51-54). The grey level distribution of the pixels in the image correspond to different phenomena (white pixels represent desquamation on the skin, dark pixels represent lines and wrinkles). The software with the Visioscan automatically calculates skin smoothness, skin roughness, scaliness and wrinkle parameters. […]
The source data was Visioscan and PhotoGrammetrix Image Analysis readings along with subjective assessments, which were totaled and reported as average scores. Photographs were placed side by side as to compare the photographs of before and after application of the test product in the eye area. […] The data obtained via Visioscan and from PhotoGrammetrix Image Analysis was quoted as % differences from baseline at each of the previously described time points. A paired t-test analysis was conducted in order to compare the results of post test product application measurements to baseline measurements where applicable. Statistical significance was established if p≤(α=0.05) was calculated.

Which “Roughness [SEr] via Visioscan, Mean” value (Day 7, Topical 0.05% in PEG (Cohort 3)) does the source give for `O=C(CCC(=O)c1ccc2c(c1)OCO2)c1ccccc1` [#222] here?
The value was 1.64.

What about the “Roughness [SEr] via Visioscan, Mean” value (Day 7, Topical 0.15% in Oil (Cohort 1)) of the same molecule?
Its value is 1.97.

What about the “Roughness [SEr] via Visioscan, Mean” value (Day 7, Topical 0.15% in PEG (Cohort 2)) of the same molecule?
The value was 1.67.

And the “Roughness [SEr] via Visioscan, % Difference of Mean” value (shortened to “Roughness … % Difference of Mean”) (Day 7 vs Baseline, Topical 0.05% in PEG (Cohort 3))?
The value was −20.24%.

And the “Roughness … % Difference of Mean” value (Day 7 vs Baseline, Topical 0.15% in Oil (Cohort 1))?
The value was −10.36%.

What about the “Roughness … % Difference of Mean” value (Day 7 vs Baseline, Topical 0.15% in PEG (Cohort 2)) of the same molecule?
Its value is −10.19%.

What about the “Roughness [SEr] via Visioscan, Mean” value (Day 14, Topical 0.05% in PEG (Cohort 3)) of the same molecule?
The value was 1.51.

What about the “Roughness [SEr] via Visioscan, Mean” value (Day 14, Topical 0.15% in Oil (Cohort 1)) of the same molecule?
Its value is 1.77.

And the “Roughness [SEr] via Visioscan, Mean” value (Day 14, Topical 0.15% in PEG (Cohort 2))?
Its value is 1.62.

What about the “Roughness … % Difference of Mean” value (Day 14 vs Baseline, Topical 0.05% in PEG (Cohort 3)) of the same molecule?
Its value is −26.59%.

What about the “Roughness … % Difference of Mean” value (Day 14 vs Baseline, Topical 0.15% in Oil (Cohort 1)) of the same molecule?
The value was −19.36%.

What about the “Roughness … % Difference of Mean” value (Day 14 vs Baseline, Topical 0.15% in PEG (Cohort 2)) of the same molecule?
Its value is −12.53%.

And the “Roughness [SEr] via Visioscan” value (Subject #1, Day 7, Topical 0.15% in Oil (Cohort 1))?
Its value is 2.46.

What about the “Roughness [SEr] via Visioscan, Individual % Difference” value (“Roughness … Individual % Difference” below) (Subject #1, Day 7 vs Baseline, Topical 0.15% in Oil (Cohort 1)) of the same molecule?
The value was −1.60%.

What about the “Roughness [SEr] via Visioscan” value (Subject #1, Day 14, Topical 0.15% in Oil (Cohort 1)) of the same molecule?
The value was 2.25.

What about the “Roughness … Individual % Difference” value (Subject #1, Day 14 vs Baseline, Topical 0.15% in Oil (Cohort 1)) of the same molecule?
The value was −9.82%.

And the “Roughness [SEr] via Visioscan” value (Subject #2, Day 7, Topical 0.15% in Oil (Cohort 1))?
The value was 1.48.

And the “Roughness … Individual % Difference” value (Subject #2, Day 7 vs Baseline, Topical 0.15% in Oil (Cohort 1))?
The value was −21.90%.

And the “Roughness [SEr] via Visioscan” value (Subject #2, Day 14, Topical 0.15% in Oil (Cohort 1))?
The value was 1.29.

And the “Roughness … Individual % Difference” value (Subject #2, Day 14 vs Baseline, Topical 0.15% in Oil (Cohort 1))?
Its value is −31.93%.

And the “Roughness [SEr] via Visioscan” value (Subject #3, Day 7, Topical 0.15% in PEG (Cohort 2))?
Its value is 1.95.

What about the “Roughness … Individual % Difference” value (Subject #3, Day 7 vs Baseline, Topical 0.15% in PEG (Cohort 2)) of the same molecule?
The value was −11.79%.

And the “Roughness [SEr] via Visioscan” value (Subject #3, Day 14, Topical 0.15% in PEG (Cohort 2))?
The value was 1.90.

And the “Roughness … Individual % Difference” value (Subject #3, Day 14 vs Baseline, Topical 0.15% in PEG (Cohort 2))?
The value was −13.83%.

And the “Roughness [SEr] via Visioscan” value (Subject #4, Day 7, Topical 0.15% in PEG (Cohort 2))?
Its value is 1.39.

What about the “Roughness … Individual % Difference” value (Subject #4, Day 7 vs Baseline, Topical 0.15% in PEG (Cohort 2)) of the same molecule?
The value was −7.84%.

What about the “Roughness [SEr] via Visioscan” value (Subject #4, Day 14, Topical 0.15% in PEG (Cohort 2)) of the same molecule?
Its value is 1.35.

And the “Roughness … Individual % Difference” value (Subject #4, Day 14 vs Baseline, Topical 0.15% in PEG (Cohort 2))?
The value was −10.63%.

What about the “Roughness [SEr] via Visioscan” value (Subject #5, Day 7, Topical 0.05% in PEG (Cohort 3)) of the same molecule?
Its value is 1.83.

And the “Roughness … Individual % Difference” value (Subject #5, Day 7 vs Baseline, Topical 0.05% in PEG (Cohort 3))?
The value was −29.07%.

And the “Roughness [SEr] via Visioscan” value (Subject #5, Day 14, Topical 0.05% in PEG (Cohort 3))?
Its value is 1.77.

And the “Roughness … Individual % Difference” value (Subject #5, Day 14 vs Baseline, Topical 0.05% in PEG (Cohort 3))?
The value was −31.40%.

What about the “Roughness [SEr] via Visioscan” value (Subject #6, Day 7, Topical 0.05% in PEG (Cohort 3)) of the same molecule?
The value was 1.44.

What about the “Roughness … Individual % Difference” value (Subject #6, Day 7 vs Baseline, Topical 0.05% in PEG (Cohort 3)) of the same molecule?
The value was −5.26%.

What about the “Roughness [SEr] via Visioscan” value (Subject #6, Day 14, Topical 0.05% in PEG (Cohort 3)) of the same molecule?
The value was 1.24.

And the “Roughness … Individual % Difference” value (Subject #6, Day 14 vs Baseline, Topical 0.05% in PEG (Cohort 3))?
Its value is −18.42%.

Source: patent publication US11839679B2, “Gamma-diketones for treatment and prevention of aging skin and wrinkles” (BioSplice Therapeutics, Inc., priority 2014, dated 2023)
